Source: US8486991B2, “Enantiomerically pure phosphoindoles as HIV inhibitors” (Idenix Pharmaceuticals, Inc., priority 2006, dated 2013)
Where “and” joins values, the source holds several entries; their conditions need not be identical. Equal values may be shown once. Read-outs that look alike come from different tables or passages of the source.

How the values were obtained:
[1] = target: site-directed mutant HIV-1 RT enzymes; experiment: HIV-1 RT enzyme assay, whole panel (ranges); assay type: biochemical; details: for IC50: Table 3, range over W.T. and 7 mutant enzymes; for Mean Activity Range (fold-resistance): Table 4, range of fold changes over the panel
From the text: In Vitro Antiviral Activity Against Additional Mutant HIV RT Enzymes
The studies are summarized in the text that follows.

[2] = target: human DNA polymerase beta (Homo sapiens, UniProt P06746); experiment: Human cellular DNA polymerase beta assay; assay type: biochemical
From the text: (§1) HIV RT, like other viral polymerase, shares limited structural homology with the cellular DNA polymerases responsible for normal nuclear and mitochondrial DNA synthesis and repair. This raises the formal possibility that inhibitors of HIV RT might inhibit cellular polymerases, resulting in cellular toxicity. In particular, inhibition of polymerase gamma has the potential to result in mitochondrial toxicity. The ability of Compound I and Compound III to inhibit cellular DNA polymerases was assessed using standard in vitro assays (Table 5).

[3] = target: T1, human DNA polymerase gamma (Homo sapiens, UniProt P54098); experiment: Human cellular DNA polymerase gamma assay; assay type: biochemical
T1 sequence (P54098 1-1239): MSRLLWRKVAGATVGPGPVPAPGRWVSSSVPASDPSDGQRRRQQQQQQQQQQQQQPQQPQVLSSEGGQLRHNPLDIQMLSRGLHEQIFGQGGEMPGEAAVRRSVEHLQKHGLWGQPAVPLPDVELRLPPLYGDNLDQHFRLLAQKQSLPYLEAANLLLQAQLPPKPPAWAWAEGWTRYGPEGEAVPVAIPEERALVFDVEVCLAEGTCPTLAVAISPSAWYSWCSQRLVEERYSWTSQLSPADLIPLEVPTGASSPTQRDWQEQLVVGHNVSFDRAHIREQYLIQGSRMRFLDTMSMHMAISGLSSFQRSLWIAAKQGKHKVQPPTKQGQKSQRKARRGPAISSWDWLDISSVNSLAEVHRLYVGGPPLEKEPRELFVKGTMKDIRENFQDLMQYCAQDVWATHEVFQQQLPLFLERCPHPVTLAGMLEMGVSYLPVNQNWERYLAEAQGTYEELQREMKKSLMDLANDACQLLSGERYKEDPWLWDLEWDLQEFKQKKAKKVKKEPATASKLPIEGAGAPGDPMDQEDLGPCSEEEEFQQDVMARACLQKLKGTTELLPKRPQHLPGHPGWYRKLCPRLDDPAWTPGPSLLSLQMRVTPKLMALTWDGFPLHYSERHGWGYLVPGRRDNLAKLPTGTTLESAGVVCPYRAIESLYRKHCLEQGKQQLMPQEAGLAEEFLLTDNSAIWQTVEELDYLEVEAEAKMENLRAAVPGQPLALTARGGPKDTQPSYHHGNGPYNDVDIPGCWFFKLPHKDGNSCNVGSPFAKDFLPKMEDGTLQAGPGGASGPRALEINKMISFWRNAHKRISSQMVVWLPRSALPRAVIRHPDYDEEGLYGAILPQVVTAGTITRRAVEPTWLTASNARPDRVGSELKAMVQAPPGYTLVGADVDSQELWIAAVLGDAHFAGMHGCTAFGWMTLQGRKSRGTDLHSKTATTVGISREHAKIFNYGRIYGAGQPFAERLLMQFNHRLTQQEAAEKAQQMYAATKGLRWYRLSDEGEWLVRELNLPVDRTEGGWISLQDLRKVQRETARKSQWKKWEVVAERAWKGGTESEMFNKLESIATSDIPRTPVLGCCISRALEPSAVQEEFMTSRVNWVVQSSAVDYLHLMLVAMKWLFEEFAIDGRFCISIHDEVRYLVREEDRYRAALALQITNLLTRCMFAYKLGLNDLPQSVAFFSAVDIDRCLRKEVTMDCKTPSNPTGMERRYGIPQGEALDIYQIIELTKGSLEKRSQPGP
From the text: as §1

[4] = test system: HIV-1 BH10 wild-type virus; experiment: CPE / cell protection assay, MT-4 cells, BH10 wild-type; assay type: cell-based; details: for EC50: Human immunodeficiency virus 1, MT4; for Fold Change, W.T.: Table 9, CPE
Procedure: The activity of the compounds was also assessed with the same virus and cell type using a different assay readout based on cytopathic effect (CPE).
MT-4 cells (Source: NIH Catalog #120) were seeded onto 96-well cell culture plates (1×10^4 cells per well in 50 μL).
The final DMSO concentration in the assay was 0.5% in 120 μL. Cell cultures were then incubated at 37° C./5% CO2 for 4 days. Then, Cell Titer 96 AQueous One Solution Cell Proliferation Assay (Promega) was used to measure cell viability. Briefly, the One Solution Reagent was added directly to culture wells (20 μL/well), incubated for 5 hours, and the absorbance was recorded at 492 nm using the Sunrise Tecan Spectrophotometer.
The EC50 values were determined from the percent inhibition versus concentration data using a sigmoidal non-linear regression analysis based on four parameters with Tecan Magellan software.

HIV-1 W.T. (BH10) virus = experiment: microbe, parasite or virus in culture; assay type: cell-based; details: for Fold Change, W.T.: Table 13, MT-2
From the text: The HIV-1 strains used were BH10, NL4-3 and IIIB: the cell lines were U-937 cells (human monocytes derived from a histiocytic lymphoma); MOLT-4 cells (a human T lymphoblastic leukemia cell line); H-9 cells (human lymphoblastic T cells); and MT-2 and MT-4 human leukemia T cells.

[5] = test system: HIV-1 W.T. strains BH10, NL4-3 and IIIB; experiment: Drug susceptibility assays, 3 W.T. strains in 5 human cell lines (ranges); assay type: cell-based
From the text: The virus and host-cell dependency of Compound I, Compound III and control drugs was further examined in drug susceptibility assays performed across 3 different subtype B wild-type HIV-1 strains and 5 different cell lines.

[6] = Cellular cytotoxicity, 4 days, MTS, U937; assay type: cell-based; details: human, Table 21, read-out: Average CC50 Values ± Standard Deviation, U937
Procedure: (§2) Cell viability was measured by standard MTT or MTS staining.
(§3) Following drug exposure for 4 days, cell viability was measured by MTS staining and CC50 values were determined. Drug concentrations ranged from 0.005 μM to 100 μM.

[7] = Cellular cytotoxicity, 4 days, MTS, H9; assay type: cell-based; details: human, Table 21, read-out: Average CC50 Values ± Standard Deviation, H9
Procedure: as §2, §3

[8] = Longer term cytotoxicity, 9 days, MTS, HeLa; details: human
Procedure: as §2
(§4) Cells were repeatedly treated with a range of drug concentrations (0.005 to 100 μM) for 9 (HeLa) or 12 days (HuH7, HepG2).

[9] = Longer term cytotoxicity, 12 days, MTS, HuH7; details: human
Procedure: as §2, §4

[10] = Longer term cytotoxicity, 12 days, MTS, HepG2; details: human
Procedure: as §2, §4

[11] = Cell Protection Assay tables, unit inferred, read-out: EC50, BH10
[12] = Table 8, CPE readout, read-out: Average EC50 Values ± Standard Deviation, W.T.
[13] = range over the three agents, read-out: mean EC50 values, WT BH10 virus, CPE assay
[14] = Human immunodeficiency virus 1, MT2, read-out: Average EC50 Values ± Standard Deviation, W.T. (BH10)
[15] = Human immunodeficiency virus 1, MT2, read-out: Average EC50 Values ± Standard Deviation, host MT-2, virus BH10
[16] = Table 5, read-out: Average IC50 Values ± Standard Deviation, DNA Pol Beta
[17] = Table 5, preliminary data from a single experiment, read-out: Average IC50 Values, DNA Pol Gamma
[18] = Human immunodeficiency virus 1, Table 17; over all virus/host combinations; read-out: Mean Activity Range
[19] = Human immunodeficiency virus 1; read-out: EC50 range, 3 HIV-1 viral strains in 5 host human cell lines
[20] = U-937 cells (monocytes derived from a histiocytic lymphoma)
[21] = H9 cells (lymphoblastic T cells)

SMILES: CO[P@](=O)(c1cc(C)cc(/C=C/C#N)c1)c1c(C(N)=O)[nH]c2ccc(Cl)c(F)c12 [Compound I, (2-Carbamoyl-5-chloro-4-fluoro-1H-indol-3-yl)-[3-((E)-2-cyano-vinyl)-5-methyl-phenyl]-(R)-phosphinic acid methyl ester]
- IC50 [1]: 0.16 to 4.67 µM
- Mean Activity Range (fold-resistance) [1]: 0.5 to 15.5 µM
- IC50 ([2]; Average IC50 Values ± Standard Deviation, DNA Pol Beta, Table 5): ≥ 422 µM
- IC50 ([2]; Mean IC50 Values ± Standard Deviation, DNA Pol Beta, Table 6, N=4): 422 ± 150 µM
- Average IC50 Values ± Standard Deviation, DNA Pol Beta ([2]; Table 5): did not reach an IC50
- IC50 ([3]; Average IC50 Values, DNA Pol Gamma, Table 5, preliminary data from a single experiment): 118 µM
- IC50 ([3]; Mean IC50 Values ± Standard Deviation, DNA Pol Gamma, Table 6, N=4): 118 µM
- EC50 [4, 11]: 0.28 ± 0.072 nM
- EC50 [4, 12]: 0.3 ± 0.1 nM
- EC50 [4, 13]: 0.1 to 0.7 nM
- Fold Change, W.T. [4]: 1 fold
- EC50 (HIV-1 W.T. (BH10) virus; [14]): 0.0009 ± 0.0006 µM
- EC50 (HIV-1 W.T. (BH10) virus; [15]): 0.0009 ± 0.0006 µM
- Fold Change, W.T. (HIV-1 W.T. (BH10) virus): 1 fold
- EC50 ([5]; Human immunodeficiency virus 1, read-out: EC50 range, 3 HIV-1 viral strains in 5 host human cell lines): 0.0005 to 0.002 µM
- EC50 ([5]; Human immunodeficiency virus 1, read-out: Mean Activity Range, Table 17; over all virus/host combinations): 0.0005 µM
- CC50 at 4 days [6]: 26.5 ± 0.5 µM
- CC50 at 4 days [7]: 20 ± 1.6 µM
- CC50 at 9 days [8]: 27.9 ± 1.14 µM
- CC50 at 12 days [9]: 23.5 ± 1.61 µM
- CC50 at 12 days [10]: 25.7 ± 3.26 µM

SMILES: CO[P@](=O)(c1cc(C)cc(/C=C/C#N)c1)c1c(C(N)=O)[nH]c2ccc(Cl)cc12 [Compound III, (2-Carbamoyl-5-chloro-1H-indol-3-yl)-[3-((E)-2-cyano-vinyl)-5-methyl-phenyl]-(R)-phosphinic acid methyl ester]
- IC50 [1]: 0.13 to 2.99 µM
- Mean Activity Range (fold-resistance) [1]: 0.6 to 13.7 µM
- Average IC50 Values ± Standard Deviation, DNA Pol Beta ([2]; Table 5): did not reach an IC50
- IC50 [2, 16]: ≥ 479 µM
- IC50 [3, 17]: ≥ 60 µM and 60.1 µM
- EC50 [4, 11]: 0.15 ± 0.11 nM
- EC50 [4, 12]: 0.2 ± 0.1 nM
- EC50 [4, 13]: 0.1 to 0.7 nM
- Fold Change, W.T. [4]: 1 fold
- EC50 (HIV-1 W.T. (BH10) virus; [14]): 0.0011 ± 0.0004 µM
- EC50 (HIV-1 W.T. (BH10) virus; [15]): 0.0011 ± 0.0004 µM
- Fold Change, W.T. (HIV-1 W.T. (BH10) virus): 1 fold
- EC50 [5, 18]: 0.0005 µM
- EC50 [5, 19]: 0.0005 to 0.0017 µM
- CC50 at 4 days [6, 20]: 24.6 ± 1.9 µM
- CC50 at 4 days [7, 21]: 31.3 ± 5.2 µM
- CC50 at 9 days ([8]; HeLa epithelial cells): 29.9 ± 2.09 µM
- CC50 at 12 days ([9]; HuH7 liver cells): 31.5 ± 3.37 µM
- CC50 at 12 days ([10]; HepG2 liver cells): 23.5 ± 1.51 µM

SMILES: O=C1Nc2ccc(Cl)cc2C(C#CC2CC2)(C(F)(F)F)O1 (stereo not drawn) [EFV, 6-chloro-4-cyclopropylethynyl-4-trifluoromethyl-1,4-dihydro-2H-3,1-benzoxazin-2-one, reference compound]
- IC50 [1]: ≥ 0.02 µM
- Average IC50 Values ± Standard Deviation, DNA Pol Beta ([2]; Table 5): did not reach an IC50
- IC50 [2, 16]: 314 ± 177 µM
- IC50 ([2]; Table 6, N=4, read-out: Mean IC50 Values ± Standard Deviation, DNA Pol Beta): 314 ± 177 µM
- IC50 [3, 17]: 116 µM
- IC50 ([3]; Table 6, N=4, read-out: Mean IC50 Values ± Standard Deviation, DNA Pol Gamma): ≥ 100 µM
- EC50 [4, 12]: 0.6 ± 0.1 nM
- EC50 [4, 13]: 0.1 to 0.7 nM
- EC50 (HIV-1 W.T. (BH10) virus; [14]): 0.0008 ± 0.0002 µM
- EC50 (HIV-1 W.T. (BH10) virus; [15]): 0.0008 ± 0.0002 µM
- EC50 [5, 18]: 0.0008 ± 0.0023 µM
- EC50 [5, 19]: 0.0004 to 0.0032 µM
- CC50 at 4 days [6, 20]: 23.2 ± 1 µM
- CC50 at 4 days [7, 21]: 50 ± 9 µM
- CC50 at 9 days ([8]; HeLa epithelial cells): 48.6 ± 2.5 µM
- CC50 at 12 days ([9]; HuH7 liver cells): 75.7 ± 12.4 µM
- CC50 at 12 days ([10]; HepG2 liver cells): 80.6 ± 12.1 µM
